From US20240238458A1, “COMPOUNDS TARGETING FIBROBLAST-ACTIVATION PROTEIN AND METHODS OF USE THEREOF” (Purdue Research Foundation, priority 2021, published 2024)

System: phosphorylation of Akt
Assay: Inhibition of phosphorylation of Akt by FAP5-PI3K inhibitors in TGF-β1 stimulated primary HLF (western blot)
Type: cell-based
Details: 24 hours and 48 hours of incubation, compounds with non-releasable linkers
Protocol: Primary HLF with passage number #˜8 were seeded in Dulbecco's Modified Eagle Medium (DMEM) with 10% fetal bovine serum (FBS) (˜100,000 cells/well) in 12 well plates to achieve ˜80% confluency. The cells were then starved in DMEM with 0.4% FBS for 24 hours, followed by stimulation by 10 ng/mL transforming growth factor-beta 1 (TGF-β1) for 24 hours.
After stimulation, cells were incubated with the FAP5-PI3K inhibitors for 2 hours, followed by replacement of culture media containing 2 ng/mL TGF-β1 and incubated for 24 hours (see FIG. 21) and 48 hours (see FIG. 22). All wells are added with 0.1% of DMSO as vehicle.
Cells were detached using trypsin and lysed with lysis buffer, proteins from cells were extracted for western blot analysis.

Question: For `COc1ncc(-c2ccc3nccc(-c4ccc(COC(=O)NCCNC(=O)CCc5cccc6c5CN(C(=O)C[C@@H]5C[C@@H](C(=O)N7CC(F)(F)C[C@H]7C#N)NC5=O)C6)nc4)c3c2)cc1NS(=O)(=O)c1ccc(F)cc1F` [FAP5-Carbamate-PI3ki], which “inhibition of phosphorylation of Akt (pAkt normalized to tAkt)” value is on record?
Answer: consistently performed better than FAP5-Ester-PI3Ki and FAP5-PI3Ki-NR
